According to ChEMBL document CHEMBL4616637, “Proximicins F and G and Diproximicin A: Aminofurans from the Marine-Derived Verrucosispora sp. SCSIO 40062 by Overexpression of PPtase Genes” (J Nat Prod, 2020):
In brackets after ≈: the same amount, converted by molar mass. Activity calls are given as the source filed them. The calls are words filed in the database; no cut-off is given here.

Key:
A549 = test: Cytotoxicity against human A549 cells assessed as reduction in cell viability after 48 hrs by SRB assay; format: functional, cell-based; conditions: A549, 48 h
SF-268 = test: Cytotoxicity against human SF268 cells assessed as reduction in cell viability after 48 hrs by SRB assay; format: functional, cell-based; conditions: SF-268, 48 h
[1] = target: Acetylcholinesterase (Electrophorus electricus) (UniProt O42275); test: Inhibition of electric eel AChE at 20 uM using acetylthiocholine iodide as substrate incubated for 6 mins by Ellman's method
MCF7 = test: Cytotoxicity against human MCF7 cells assessed as reduction in cell viability after 48 hrs by SRB assay; format: functional, cell-based; conditions: MCF7, 48 h
[2] = target: T1, Tyrosinase (Homo sapiens) (UniProt P14679); test: Inhibition of tyrosinase (unknown origin) at 20 uM using L-DOPA as substrate
T1 sequence (whole entry): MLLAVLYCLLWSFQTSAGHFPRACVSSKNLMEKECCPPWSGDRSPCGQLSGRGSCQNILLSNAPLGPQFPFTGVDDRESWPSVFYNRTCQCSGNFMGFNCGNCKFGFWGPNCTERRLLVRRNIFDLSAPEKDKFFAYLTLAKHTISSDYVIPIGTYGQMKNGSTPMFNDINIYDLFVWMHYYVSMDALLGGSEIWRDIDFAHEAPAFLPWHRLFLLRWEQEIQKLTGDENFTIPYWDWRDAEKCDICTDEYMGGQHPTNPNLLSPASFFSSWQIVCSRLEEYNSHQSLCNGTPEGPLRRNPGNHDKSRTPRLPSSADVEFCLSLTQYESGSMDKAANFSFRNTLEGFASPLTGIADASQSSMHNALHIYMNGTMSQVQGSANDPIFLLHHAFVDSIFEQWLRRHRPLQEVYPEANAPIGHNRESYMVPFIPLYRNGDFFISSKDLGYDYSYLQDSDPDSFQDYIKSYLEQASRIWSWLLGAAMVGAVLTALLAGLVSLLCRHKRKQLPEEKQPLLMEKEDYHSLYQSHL

HepG2 = test: Cytotoxicity against human HepG2 cells assessed as reduction in cell viability after 48 hrs by SRB assay; format: functional, cell-based; conditions: HepG2, 48 h
Homo sapiens = species on record: Homo sapiens; test: Inhibition of alpha-glucosidase (unknown origin) at 20 uM using pNPG as substrate preincubated for 15 mins followed by substrate addition and measured after 15 mins
Staphylococcus aureus [3] = test: Antibacterial activity against Staphylococcus aureus ATCC 29213 by CLSI based susceptibility test method; format: functional
Bacillus subtilis = test: Antibacterial activity against Bacillus subtilis 1064 by CLSI based susceptibility test method; format: functional
Staphylococcus aureus [4] = test: Antibacterial activity against methicillin-resistant Staphylococcus aureus shhsA1 by CLSI based susceptibility test method; format: functional
Micrococcus luteus = test: Antibacterial activity against Micrococcus luteus SCSIO ML01 by CLSI based susceptibility test method; format: functional

Chain of Acetylcholinesterase (Electrophorus electricus) (O42275 24-633 limits assumed): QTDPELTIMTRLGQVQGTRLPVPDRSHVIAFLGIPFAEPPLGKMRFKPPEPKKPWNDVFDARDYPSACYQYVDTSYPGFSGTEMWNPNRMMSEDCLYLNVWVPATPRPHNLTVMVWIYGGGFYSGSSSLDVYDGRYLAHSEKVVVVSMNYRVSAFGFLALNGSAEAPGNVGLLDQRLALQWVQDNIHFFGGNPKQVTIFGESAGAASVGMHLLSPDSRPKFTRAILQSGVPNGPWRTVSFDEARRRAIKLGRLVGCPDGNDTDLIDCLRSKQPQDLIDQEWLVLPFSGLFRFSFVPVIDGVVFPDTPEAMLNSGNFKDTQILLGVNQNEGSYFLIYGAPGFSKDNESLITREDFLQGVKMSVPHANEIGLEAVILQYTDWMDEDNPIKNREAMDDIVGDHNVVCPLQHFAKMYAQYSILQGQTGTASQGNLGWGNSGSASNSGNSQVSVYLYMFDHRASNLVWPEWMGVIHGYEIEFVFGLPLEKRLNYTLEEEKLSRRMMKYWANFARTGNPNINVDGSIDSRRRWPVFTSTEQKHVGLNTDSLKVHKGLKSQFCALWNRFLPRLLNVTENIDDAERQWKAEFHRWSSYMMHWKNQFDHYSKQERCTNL

Row | SMILES | IC50 (A549) [µM] | IC50 (SF-268) [µM] | inhibition [1] | IC50 (MCF7) [µM] | inhibition [2] | IC50 (HepG2) [µM] | inhibition (Homo sapiens) | MIC (Staphylococcus aureus [3]) [µg/mL] | MIC (Bacillus subtilis) [µg/mL] | MIC (Staphylococcus aureus [4]) [µg/mL] | MIC (Micrococcus luteus) [µg/mL]
1 | CNC(=O)c1cc(NC(=O)c2cc(NC(=O)OC)co2)co1 | > 10 | > 10 | inactive | > 10 | inactive | > 10 | inactive | > 64 | > 64 | > 64 | > 64
2 | COC(=O)Nc1coc(C(=O)Nc2coc(C(=O)NCCCCCNC(=O)c3cc(NC(=O)c4cc(NC(=O)OC)co4)co3)c2)c1 | > 10 | > 10 | inactive | > 10 | inactive | > 10 | inactive | > 64 | > 64 | > 64 | > 64
3 | COC(=O)Nc1coc(C(=O)Nc2coc(C(=O)NCCc3ccccc3)c2)c1 | – | – | inactive | – | inactive | – | inactive | > 64 | 32 (≈ 80.5 µM) | > 64 | > 64
4 | CC1(C)S[C@@H]2[C@H](NC(=O)[C@H](N)c3ccccc3)C(=O)N2[C@H]1C(=O)O [AMPICILLIN] | – | – | – | – | – | – | – | 0.25 (≈ 0.715 µM) | 0.25 (≈ 0.715 µM) | > 64 | 0.5 (≈ 1.43 µM)
5 | C[S+](C)[O-] [DIMETHYL SULFOXIDE] | – | – | – | – | – | – | – | > 64 | > 64 | > 64 | > 64
6 | COC(=O)Nc1coc(C(=O)Nc2coc(C(=O)NCCc3ccc(O)cc3)c2)c1 [PROXIMICIN B] | > 10 | > 10 | inactive | > 10 | inactive | > 10 | inactive | 16 (≈ 38.7 µM) | 8 (≈ 19.4 µM) | 16 (≈ 38.7 µM) | > 64
7 | COC(=O)Nc1coc(C(=O)Nc2coc(C(=O)NCCc3c[nH]c4ccccc34)c2)c1 [PROXIMICIN C] | > 10 | > 10 | inactive | > 10 | inactive | > 10 | inactive | > 64 | > 64 | > 64 | > 64
8 | COc1cc(Cc2cnc(N)nc2N)cc(OC)c1OC [TRIMETHOPRIM] | – | – | – | – | – | – | – | 2 (≈ 6.89 µM) | 0.25 (≈ 0.861 µM) | > 64 | 2 (≈ 6.89 µM)
9 | CN[C@H](CC(C)C)C(=O)N[C@H]1C(=O)N[C@@H](CC(N)=O)C(=O)N[C@H]2C(=O)N[C@H]3C(=O)N[C@H](C(=O)N[C@H](C(=O)O)c4cc(O)cc(O)c4-c4cc3ccc4O)[C@H](O)c3ccc(c(Cl)c3)Oc3cc2cc(c3O[C@@H]2O[C@H](CO)[C@@H](O)[C@H](O)[C@H]2O[C@H]2C[C@](C)(N)[C@H](O)[C@H](C)O2)Oc2ccc(cc2Cl)[C@H]1O [VANCOMYCIN] | – | – | – | – | – | – | – | – | 0.5 (≈ 0.345 µM) | – | 0.25 (≈ 0.173 µM)
